According to patent US5693812A, “Polymorphic forms of an angiotensin II antagonist” (priority 1996, dated 1997):
Several values for one entry are separate records, joined by “and”; a condition that tells them apart may be missing. Identical values can stand only once. Counter-ions that a name gives are not always drawn. Blank lines part the entries; values can stand above or below the molecule they belong to.

Experiments:
AT2 binding sites = details: background statement; cited from earlier work
AT1 receptors = details: background statement; cited from earlier work
[1] = Solubility in crystallization solvent (water/methanol/isopropyl acetate); format: physicochemical; details: 1:2:2 water/methanol/isopropyl acetate
Experimental: Step K: Preparation of 3-[2'-(N-Benzyl)sulfonamidobiphenyl-4-yl]methyl-5,7-dimethyl-2-ethyl-3H-imidazo[4,5-b]pyridine potassium salt--(Forms I, Id and W) [drawing 13] In a 72-L four-necked flask fitted with an overhead stirrer and a reflux condenser, 3-[2'-(N-benzyl)sulfonamidobiphenyl-4-yl]methyl-5,7-dimethyl-2-ethyl-3H-imidazo[4,5-b]pyridine 1 (5.04 kg, 9.6 mol), methanol (14.5 L) and water (2.5 L) are mixed. The slurry is warmed to 62° C. under a nitrogen atmosphere and 1.94M potassium hydroxide (4.96 L, 9.61 mol) is added to the slurry at 62° C. over 1.5 hours to provide a homogeneous solution. Isopropyl acetate (13.83 L) is then added at 65° C. and the mixture is warmed to 70° C. The homogeneous solution is filtered at 70° C. to remove any particulates that are present. The filtrate is diluted with isopropyl acetate (1.3 L), methanol (0.6 L) and water (0.1 L). […] The homogeneous mixture is cooled to 52° C. over 2 hours, whereupon potassium salt seed of form "I" (140 g) is added. This mixture becomes cloudy after 30 min. The mixture is aged for 10 hours at 52° C. The white slurry is cooled to 48° C. over 1 hour and stirred for 3 hours. […] The K-salt is considered dry when <0.05% methanol and isopropyl acetate are detected by ^1 H NMR. […] The water content can be monitored by TG analysis. […] The crystal form is monitored by X-ray analysis. […]

[2] = Crystal form stability on heating; format: physicochemical; details: about 216° C.
[3] = Hygroscopicity studies / exposure to humidity; format: physicochemical
[4] = Crystal form stability in water (XRPD of remaining solid); format: physicochemical; details: room temperature, listed as I, potassium salt
Text: [13) S. R. Byre. "Solid State Chemistry of Drugs." Academic Press, New York, 1982.] […] Recrystallization of any of these lots from solvents like ethanol, methanol, isopropanol, acetone, etc. gave new crystal forms different from the original forms. […] Solubility in water at room temperature was one of these techniques. The equilibrium solubility in water, at room temperature for five polymorphs (Forms "B", "C", "D", "F", and "G") were the same (Table 1). When the remaining solids were filtered, air dried or vacuum dried overnight at room temperature the XRPD patterns had changed from the initial patterns and all were exactly the same. These experiments indicate that all of the crystal forms converted in water at room temperature to a new crystalline form designated […].
The remaining form "I" solid after equilibrium solubility studies in water was removed by filtration and vacuum dried overnight at room temperature.
After the discovery of form "I", form "D" could no longer be isolated in our laboratory. TGA studies indicate that form "I" of 3-[2'-(N-benzoyl)sulfonamidobiphenyl-4-yl]methyl-5,7-dimethyl-2-ethyl-3H-imidazo[4,5-b]pyridine potassium salt is a dihydrate (FIG. 4).

[5] = Thermogravimetric analysis (TGA) weight loss / water content; format: physicochemical; details: for TG of the potassium salt: dried product, Example 1 Step K
Experimental: (§1) The crystal forms were characterized and evaluated by measuring the heats of solution or solution calorimetry, solubility data, x-ray powder diffraction patterns (XRPD), differential scanning calorimetry (DSC) and thermogravimetric analysis (TGA). Heats of solution at 30° C. were obtained in the Setaram C-80 calvet calorimeter with sample size of 7-13 mg dissolved into 5 ml of 88% DMSO 12% water for a final concentration of 1.4-2.6 mg/ml. XRPD patterns were recorded using an automated Siemens X-ray diffractometer with copper tube K alpha radiation. DSC and TGA were conducted using a Perkin Elmer series 7 instrument with a scan rate of 10° C./min over the temperature range of 30°-300° C. Utilizing these techniques the thermodynamic stability of the polymorphs of 3-[2'-(N-benzoyl)sulfonamidobiphenyl-4-yl]methyl-5,7-dimethyl-2-ethyl-3H-imidazo[4,5-b]pyridine potassium salt was determined.
Step K: Preparation of 3-[2'-(N-Benzyl)sulfonamidobiphenyl-4-yl]methyl-5,7-dimethyl-2-ethyl-3H-imidazo[4,5-b]pyridine potassium salt--(Forms I, Id and W) [drawing 13] In a 72-L four-necked flask fitted with an overhead stirrer and a reflux condenser, 3-[2'-(N-benzyl)sulfonamidobiphenyl-4-yl]methyl-5,7-dimethyl-2-ethyl-3H-imidazo[4,5-b]pyridine 1 (5.04 kg, 9.6 mol), methanol (14.5 L) and water (2.5 L) are mixed. The slurry is warmed to 62° C. under a nitrogen atmosphere and 1.94M potassium hydroxide (4.96 L, 9.61 mol) is added to the slurry at 62° C. over 1.5 hours to provide a homogeneous solution. Isopropyl acetate (13.83 L) is then added at 65° C. and the mixture is warmed to 70° C. The homogeneous solution is filtered at 70° C. to remove any particulates that are present. The filtrate is diluted with isopropyl acetate (1.3 L), methanol (0.6 L) and water (0.1 L). […] The homogeneous mixture is cooled to 52° C. over 2 hours, whereupon potassium salt seed of form "I" (140 g) is added. This mixture becomes cloudy after 30 min. The mixture is aged for 10 hours at 52° C. The white slurry is cooled to 48° C. over 1 hour and stirred for 3 hours. Finally, the crystallization mixture is cooled to 0° C. at a rate of 1° C./12.5 min. and aged for 2 hours at 0° C. […] The solid is centrifuged at 0° C. and displacement-washed with a mixture of 2:2:1 cold (0° C.) isopropyl acetate/methanol/water (5.65 L) followed by isopropyl acetate (2.3 L). The solid is semi-dried to a TG of 10-15% by spin drying. The mother liquors contain 21 wt % of 3-[2'-(N-benzyl)sulfonamidobiphenyl-4-yl]methyl-5,7-dimethyl-2-ethyl-3H-imidazo[4,5-b]pyridine potassium salt. At this stage, the crystal form of the product is form "W". The product is powdered by passing through a screen (size=12). The solid is dried by passing dry nitrogen over the solid under vacuum at 22° C. for 5 hours to yield 4.55 kg of 3-[2'-(N-benzyl)sulfonamidobiphenyl-4-yl]methyl-5,7-dimethyl-2-ethyl-3H-imidazo[4,5-b]pyridine potassium salt as the form "I" with a purity of 99.7% (assay-HClO4 titration) and TG of 7-10%. Generally, the wet cake consists of residual water, methanol and isopropyl acetate. The K-salt is considered dry when <0.05% methanol and isopropyl acetate are detected by ^1 H NMR. The product is further powdered by passing the solid through a Quadro Comil (model 197s, screen size=1143 mm round impeller) to yield 4.5 kg. The product is dried to a TG of 4.6-5.5% by the passage of dry nitrogen over the solid under vacuum at 22° C. After 10 hours, 4.24 kg (78%) of the potassium salt as the form "I" is obtained with a TG of […] (99.7 wt % by titration). The water content can be monitored by TG analysis. The TG of the potassium salt of form "I" is 4.6-5.5%. The crystal form is monitored by X-ray analysis. When the potassium salt is over dried, the crystal form converts to form "Id" (TG<4.6%). […]

[6] = Equilibrium solubility in water at room temperature; format: physicochemical
[7] = Heat of solution by solution calorimetry (Setaram C-80); format: physicochemical
Experimental: The heat of solution of different crystal forms of 3-[2'-(N-benzoyl)sulfonamidobiphenyl-4-yl]methyl-5,7-dimethyl-2-ethyl-3H-imidazo[4,5-b]pyridine potassium salt were studied at 30° C. The heat of solution is a measure of the crystal lattice energy. […] Heats of solution had to be conducted in a solvent which dissolved the samples quickly without conversion to another polymorph. This really limited solvents which could be used. Dimethylsulfoxide was chosen for this reason. The heats of solution therefore have contributions from the lattice energy of the solid as well as heat of dilution of lattice water in dimethylsulfoxide. The calorimeter therefore produces a complex signal that has an exothermic contribution from the water and an additional contribution from the energy required to dissolve the crystal. […] Additional heats of solution were determined in a mixed solvent system of 88% dimethylsulfoxide and 12% water. This system was used to minimize the contribution of moisture to the heat of solution.
as §1, with “C.” for “C. Utilizing these techniques the thermodynamic stability of the polymorphs of 3-[2'-(N-benzoyl)sulfonamidobiphenyl-4-yl]methyl-5,7-dimethyl-2-ethyl-3H-imidazo[4,5-b]pyridine potassium salt was determined.”

solubility of the potassium salt at 0° C. ([1]; 0° C.): 15000 µg/mL | solubility of the potassium salt at 60° C. ([1]; 60° C.): 174000 µg/mL
Structure (SMILES): CCc1nc2c(C)cc(C)nc2n1Cc1ccc(-c2ccccc2S(=O)(=O)NC(=O)c2ccccc2)cc1 [3-[2'-(N-benzoyl)sulfonamidobiphenyl-4-yl]methyl-5,7-dimethyl-2-ethyl-3H-imidazo[4,5-b]pyridine potassium salt]
affinity for AT2 binding sites (AT2 binding sites): low affinity | affinity for AT1 receptors (AT1 receptors): high affinity

crystal form after heating to about 216° C. [2]: converted to form H | hygroscopicity ([3]; relative humidities of 47% and above): non-hygroscopic | crystal form after suspension in water [4]: remained unchanged | % Weight Loss (Δ 30-150° C. by TGA) ([5]; 30-150° C., listed as I, potassium salt): 4.1-5.9% | hydration state ([5]; TGA, listed as I, potassium salt): dihydrate | TG of the potassium salt ([5]; listed as I): 4.6-5.5% and 6.1% and 7-10% | Solubility in water ([6]; room temperature, Table I, potassium salt): 8000 ± 400 µg/mL | solubility thermodynamic ([6]; water, pH 7.8 printed for the other crystal forms): 8000 µg/mL | ΔH solution 88% DMSO/12% H2O ([7]; 88% DMSO/12% H2O, 30° C., listed as I, potassium salt): -25.68 ± 2.67 J/g | heat of solution, ranking ([7]; 88% dimethylsulfoxide and 12% water): most endothermic | ΔH solution DMSO at 30° C. ([7]; DMSO, 30° C., listed as I, potassium salt): -8.56 ± 1.64 J/g | heat of solution, ranking ([7]; dimethylsulfoxide, 30° C.): most endothermic | thermodynamic stability ([7]; from heats of solution and equilibrium solubility, listed as I, potassium salt): thermodynamically stable crystal form
Structure (SMILES): CCc1nc2c(C)cc(C)nc2n1Cc1ccc(-c2ccccc2S(=O)(=O)NC(=O)c2ccccc2)cc1 [Form I, 3-[2'-(N-benzoyl)sulfonamidobiphenyl-4-yl]methyl-5,7-dimethyl-2-ethyl-3H-imidazo[4,5-b]pyridine potassium salt]

reconversion upon exposure to ambient humidity ([3]; ambient humidity): reconverted to form "I" | TG of the potassium salt ([5]; listed as Id): < 4.6%
Structure (SMILES): CCc1nc2c(C)cc(C)nc2n1Cc1ccc(-c2ccccc2S(=O)(=O)NC(=O)c2ccccc2)cc1 [Form Id, 3-[2'-(N-benzoyl)sulfonamidobiphenyl-4-yl]methyl-5,7-dimethyl-2-ethyl-3H-imidazo[4,5-b]pyridine potassium salt]
